PMC8232238 (Cells, 2021)
Read-outs that look alike come from different tables or passages of the source.

Columns and labels:
[1] = molecular target: T1, HDAC3 (Homo sapiens, UniProt O15379); conditions: previously reported 4-amino analogues; cited from earlier work
T1 construct: purchased Reaction Biology corporation (contract assay)

[2] = tested on: acetylated tubulin in A549 cells; test: Tubulin acetylation in A549 cells, immunostaining with high content imaging; assay type: cell-based, human; conditions: 24 h; for Concentration from which tubulin acetylation was significantly increased: compared to untreated cells
Protocol: (§1) To confirm the observed activities of the selected test compounds against HDAC6, the acetylation status of tubulin in the human lung cancer cell line A549 was investigated by immunostaining combined with automated high content image analysis (see supplementary material for full details). […] The apparent drop in histone acetylation by both compounds above 10 μM is indicative of a potential cytotoxicity at higher concentrations (data not shown).
(§2) Figure 5 Cell-based assessment of HDAC activity and selectivity. Dose and time-dependency of tubulin and histone acetylation by test compounds. A549 cells were treated with (A,B) different concentrations (0–50 µM) of CF011, KNH019 and tubastatin for 24 h or with (C,D) 1 µM over different time intervals before (A,C) tubulin acetylation or (B,D) histone acetylation were automatically quantified using high content imaging. Data represent the average of four independent experiments with four replicate wells/experiments. The statistical significances of effects compared to the untreated control were analysed using Brown–Forsythe and Welch one-way ANOVA analyses using Graph Pad Prism. The significance was set as * 0.05 > p ≥ 0.01, ** 0.01 > p ≥ 0.002. Error bars represent the Standard Error of Mean (SEM). (E) Representative fluorescence images show tubulin acetylation (yellow), histone acetylation (red) and nuclear counterstain (DAPI, blue) after 24 h of exposure to test compounds. Secondary antibodies were detected using excitation/emission filters for CY3 (excitation: 542/27 nm, emission: 597/45 nm), CY5 (excitation: 632/22 nm, emission: 684/25 nm) and DAPI (excitation: 390/18 nm, emission: 435/48 nm), respectively. […]
(§3) S2.2 Cell Culture, Treatment and Immunostaining:
(§4) A549 cells (ATCC® CCL-185™, In Vitro Technologies Pty. Ltd., Victoria, Australia) were cultured in low glucose Dulbecco’s Modified Eagle Media (DMEM, 1 g/L glucose, 0.584 g/L L-glutamine, 3.7 g/L sodium bicarbonate, 10 % fetal bovine serum) under standard conditions (> 90 % humidity, 37 °C temperature, 5 % CO 2). For experiments, 5,000 cells/ well were seeded in 100 µl serum free DMEM in 384 well plates (µCLEAR®, Greiner) and left to adhere for 24 hours before the treatment. Cells were treated with 100 µl of test compound -containing media for up to 24 hours before cells were fixed with 4 % paraformaldehyde (PFA) solution in PBS (10 minutes at room temperature (RT)) and permeabi lized with 50 µl of 0.5 % Triton X -100 in PBS. Subsequently, cells were blocked in PBST (5% fetal bovine serum, 5% bovine serum albumin, 5% goat serum, 0.1% Tween 20 in PBS) before stained with anti - acetylated tubulin (T7451, Sigma Aldrich; 1:1,000) and an ti-acetylated histone antibody (ab47915, Abcam; 1:1,000) overnight at 4 °C. Subsequently, cells were exposed to secondary antibodies (goat anti-mouse Alexa fluor 594 (Invitrogen; 1:10,000) and goat anti -rabbit Alexa fluor 647 (Invitrogen; 1:10,000) in PBST ) and DAPI solution (Invitrogen; 1:10,000 in PBST) before images were acquired.
(§5) Fluorescence images were acquired (10x magnification, 2 -D format) using the InCell 2200 high content imaging system (V7.3, GE Healthcare life sciences) wi th CY3 (excitation: 542/27 nm, emission: 597/45 nm), CY5 (excitation: 632/22 nm, emission: 684/25 nm) and DAPI (excitation: 390/18 nm, emission:
435/48 nm) filters. Two images/well at predefined positions were automatically acquired with 4 replicate wells for each treatment condition/ experiment. At least 3 independent experiments were conducted for each condition. Acquired images were automatically processed using InCarta software (v1.6, GE Healthcare life sciences). All images were manually checked for ar tefacts. Images with less than 30 cells were excluded from the analysis. Excel and GraphPad Prism was used for statistical analysis and graphical representation. Data was expressed as % Relative Fluorescence Units (RFU) […]

[3] = molecular target: T2, HDAC11 (Homo sapiens, UniProt Q96DB2); conditions: previously reported 4-amino analogues; cited from earlier work
T2 construct: purchased Reaction Biology corporation (contract assay)
T2 sequence (Q96DB2 1-347): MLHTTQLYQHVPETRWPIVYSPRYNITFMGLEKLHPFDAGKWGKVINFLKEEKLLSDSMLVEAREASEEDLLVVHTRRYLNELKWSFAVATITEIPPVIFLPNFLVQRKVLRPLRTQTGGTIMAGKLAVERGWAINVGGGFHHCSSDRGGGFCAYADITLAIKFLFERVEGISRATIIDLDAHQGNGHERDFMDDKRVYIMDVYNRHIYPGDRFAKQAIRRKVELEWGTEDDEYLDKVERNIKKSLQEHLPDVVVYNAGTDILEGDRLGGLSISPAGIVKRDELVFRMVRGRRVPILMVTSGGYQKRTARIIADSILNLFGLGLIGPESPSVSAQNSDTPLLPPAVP

[4] = molecular target: T3, HDAC1 (Homo sapiens, UniProt Q13547); conditions: previously reported 4-amino analogues; cited from earlier work
T3 construct: purchased Reaction Biology corporation (contract assay)
T3 sequence (Q13547 whole entry): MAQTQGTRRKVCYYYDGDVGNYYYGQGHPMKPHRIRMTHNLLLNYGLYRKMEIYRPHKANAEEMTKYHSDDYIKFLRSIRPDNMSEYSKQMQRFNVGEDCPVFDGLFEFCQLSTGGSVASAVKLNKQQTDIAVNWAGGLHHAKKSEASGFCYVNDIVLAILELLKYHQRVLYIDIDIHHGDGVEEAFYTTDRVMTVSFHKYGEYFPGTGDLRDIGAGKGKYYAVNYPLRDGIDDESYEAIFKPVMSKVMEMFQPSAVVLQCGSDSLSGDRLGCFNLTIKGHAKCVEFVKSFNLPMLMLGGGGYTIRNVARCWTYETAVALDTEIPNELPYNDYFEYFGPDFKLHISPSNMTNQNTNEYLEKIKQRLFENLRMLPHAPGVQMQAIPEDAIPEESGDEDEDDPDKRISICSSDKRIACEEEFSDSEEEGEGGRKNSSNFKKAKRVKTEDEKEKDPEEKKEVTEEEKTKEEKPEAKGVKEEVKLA

[5] = molecular target: T4, HDAC8 (Homo sapiens, UniProt Q9BY41); conditions: previously reported 4-amino analogues; cited from earlier work
T4 construct: purchased Reaction Biology corporation (contract assay)
T4 sequence (Q9BY41 1-377): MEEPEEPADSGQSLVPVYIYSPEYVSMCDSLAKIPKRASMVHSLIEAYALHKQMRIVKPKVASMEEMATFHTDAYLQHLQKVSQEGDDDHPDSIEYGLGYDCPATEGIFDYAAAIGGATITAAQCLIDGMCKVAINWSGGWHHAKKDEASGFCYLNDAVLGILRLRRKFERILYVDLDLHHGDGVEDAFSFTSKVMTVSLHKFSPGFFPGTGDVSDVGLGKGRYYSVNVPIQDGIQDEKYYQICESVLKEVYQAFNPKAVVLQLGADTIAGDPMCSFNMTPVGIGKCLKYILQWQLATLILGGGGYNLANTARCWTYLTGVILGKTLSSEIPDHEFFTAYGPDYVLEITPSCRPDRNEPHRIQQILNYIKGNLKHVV

[6] = tested on: acetylated histone in A549 cells; test: Histone acetylation in A549 cells, immunostaining with high content imaging; assay type: cell-based, human; conditions: 24 h; for Concentration from which histone acetylation was significantly increased: compared to untreated cells
Protocol: as §1, §2, §3, §4, §5
435/48 nm) filters. […] Data was expressed as % Relative Fluorescence Units (RFU) […]

[7] = molecular target: T3, HDAC1; set-up: method as in PMID 30168823; conditions: Figure 2; cited from earlier work
[8] = molecular target: T5, HDAC6 (Homo sapiens, UniProt Q9UBN7); set-up: method as in PMID 30168823; conditions: Figure 2; cited from earlier work
T5 construct: purchased Reaction Biology corporation (contract assay)
T5 sequence (Q9UBN7 1-1215): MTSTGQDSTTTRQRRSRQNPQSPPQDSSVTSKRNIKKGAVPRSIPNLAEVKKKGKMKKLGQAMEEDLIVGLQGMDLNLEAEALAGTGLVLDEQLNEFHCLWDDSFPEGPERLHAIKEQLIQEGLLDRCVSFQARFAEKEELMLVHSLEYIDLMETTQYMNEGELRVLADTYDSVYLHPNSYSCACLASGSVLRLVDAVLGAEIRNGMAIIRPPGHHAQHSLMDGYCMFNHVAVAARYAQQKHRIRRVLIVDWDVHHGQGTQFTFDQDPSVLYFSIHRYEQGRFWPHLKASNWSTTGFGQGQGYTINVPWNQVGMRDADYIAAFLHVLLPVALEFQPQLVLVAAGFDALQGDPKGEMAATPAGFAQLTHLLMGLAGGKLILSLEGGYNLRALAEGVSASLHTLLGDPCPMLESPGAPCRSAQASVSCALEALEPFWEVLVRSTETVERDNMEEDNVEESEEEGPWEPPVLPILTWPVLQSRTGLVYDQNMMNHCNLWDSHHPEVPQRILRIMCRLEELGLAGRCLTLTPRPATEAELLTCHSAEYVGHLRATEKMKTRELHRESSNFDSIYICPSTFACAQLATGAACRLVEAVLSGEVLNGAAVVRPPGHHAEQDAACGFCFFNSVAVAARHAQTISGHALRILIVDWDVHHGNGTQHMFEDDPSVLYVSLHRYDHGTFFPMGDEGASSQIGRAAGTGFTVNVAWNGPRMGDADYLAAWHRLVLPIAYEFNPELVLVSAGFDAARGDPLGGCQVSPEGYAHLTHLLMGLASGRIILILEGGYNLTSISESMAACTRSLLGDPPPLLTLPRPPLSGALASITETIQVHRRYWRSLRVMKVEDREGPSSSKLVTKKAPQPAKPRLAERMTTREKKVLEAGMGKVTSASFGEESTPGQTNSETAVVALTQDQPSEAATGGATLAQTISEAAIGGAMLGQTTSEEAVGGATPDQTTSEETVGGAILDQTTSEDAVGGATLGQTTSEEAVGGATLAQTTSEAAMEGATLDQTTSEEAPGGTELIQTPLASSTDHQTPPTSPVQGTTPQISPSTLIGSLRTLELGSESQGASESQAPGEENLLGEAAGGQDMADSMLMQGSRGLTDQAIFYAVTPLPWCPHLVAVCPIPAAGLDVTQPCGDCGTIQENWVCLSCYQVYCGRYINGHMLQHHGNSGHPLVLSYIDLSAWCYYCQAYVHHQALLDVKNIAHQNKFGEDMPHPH

T1 sequence (O15379 whole entry): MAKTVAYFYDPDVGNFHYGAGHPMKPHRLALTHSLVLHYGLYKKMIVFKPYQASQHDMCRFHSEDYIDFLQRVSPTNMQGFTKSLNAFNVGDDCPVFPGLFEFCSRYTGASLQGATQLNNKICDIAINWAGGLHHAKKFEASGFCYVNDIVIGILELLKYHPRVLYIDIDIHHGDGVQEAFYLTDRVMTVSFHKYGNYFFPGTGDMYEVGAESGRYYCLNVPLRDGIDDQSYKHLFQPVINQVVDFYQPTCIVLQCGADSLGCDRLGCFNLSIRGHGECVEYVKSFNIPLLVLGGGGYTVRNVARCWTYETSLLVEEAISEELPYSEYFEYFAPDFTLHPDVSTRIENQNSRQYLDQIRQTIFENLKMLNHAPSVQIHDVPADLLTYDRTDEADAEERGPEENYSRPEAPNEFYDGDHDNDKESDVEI
T1 sequence (Q9Y618 395-489 partner limits assumed): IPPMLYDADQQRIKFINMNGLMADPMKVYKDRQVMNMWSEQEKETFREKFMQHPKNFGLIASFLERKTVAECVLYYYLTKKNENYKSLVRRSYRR

SMILES	IC50 [1] [nM]	Selectivity factor (SF) HDAC3 against HDAC6 [1]	Increase of tubulin acetylation compared to untreated cells (up to) ([2]; 0-50 µM, dose-dependent) [fold]	Tubulin acetylation in representative immunostaining images ([2]; 10 µM)	Concentration from which tubulin acetylation was significantly increased [2]	Selectivity factor (SF) HDAC11 against HDAC6 [3]	Selectivity factor (SF) = HDAC1 IC50/HDAC6 IC50 [4]	Selectivity factor (SF) HDAC8 against HDAC6 [5]	Histone acetylation in representative immunostaining images ([6]; 10 µM)	Concentration from which histone acetylation was significantly increased [6]	IC50 [7] [nM]	Selectivity factor (SF) = HDAC1 IC50/HDAC6 IC50 [7]	IC50 [8] [nM]
O=C(CCCCCN1C(=O)c2cccc3c(NCc4ccccc4)ccc(c23)C1=O)NO [CF011]	360 ± 0.7	103	~1.5	strongly induce	10^−9 mM	43	566	703	strongly induce	10^−6 mM			
CCCNc1ccc2c3c(cccc13)C(=O)N(CCCCCC(=O)NO)C2=O [CF010]	110 ± 4	23				16	123	317					
CN1CCc2c(c3ccccc3n2Cc2ccc(C(=O)NO)cc2)C1 [tubastatin]					10^−3 mM					10^−3 mM			
COc1cc2c3c(cccc3c1)C(=O)N(Cc1ccc(C(=O)NO)cc1)C2=O [Compound 3]											33	412	0.08
